Assay results from patent US20230097157A1, “Bicyclic Pyridin-2-one and pyrimidin-4-one Derivatives Useful As a Factor XIa Inhibitors” (Janssen Pharmaceutica NV, priority 2021, published 2023).
Read-outs that look alike come from different tables or passages of the source.

Legend:
human plasma kallikrein = human plasma kallikrein (Homo sapiens, UniProt P03952); assay: Kallikrein inhibition assay (FLINT) utilizing a quenched AMC peptide substrate Z-Gly-Pro-Arg-AMC; assay type: biochemical; details: kinetic (KIN) reads, read-out: Kallikrein KIN Inh IC50
Chain of human plasma kallikrein (P03952 391-638 limits assumed): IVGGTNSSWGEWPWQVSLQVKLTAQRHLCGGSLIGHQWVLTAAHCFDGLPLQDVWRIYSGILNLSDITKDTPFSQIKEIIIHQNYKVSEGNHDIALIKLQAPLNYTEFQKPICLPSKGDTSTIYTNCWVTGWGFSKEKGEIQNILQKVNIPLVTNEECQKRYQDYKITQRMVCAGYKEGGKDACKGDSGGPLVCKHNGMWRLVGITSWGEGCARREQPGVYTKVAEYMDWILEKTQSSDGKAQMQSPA
Chain of human plasma kallikrein (P03952 20-390 partner limits assumed): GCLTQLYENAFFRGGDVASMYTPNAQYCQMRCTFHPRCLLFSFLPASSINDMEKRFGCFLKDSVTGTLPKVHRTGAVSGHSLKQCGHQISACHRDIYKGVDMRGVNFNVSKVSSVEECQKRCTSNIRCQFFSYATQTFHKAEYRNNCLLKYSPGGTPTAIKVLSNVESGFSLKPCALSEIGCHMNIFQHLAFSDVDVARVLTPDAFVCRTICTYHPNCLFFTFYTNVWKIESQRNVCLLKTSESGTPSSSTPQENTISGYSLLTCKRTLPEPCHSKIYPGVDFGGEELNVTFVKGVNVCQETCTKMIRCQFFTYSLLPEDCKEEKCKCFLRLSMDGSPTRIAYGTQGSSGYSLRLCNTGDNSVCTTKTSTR
In short: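 IC50 from a 4-parameter logistic fit of % inhibition from 11 concentrations (3-fold, top 1 μM, 2% DMSO). Compound pre-incubated 30 min with 2 nM enzyme in Tris pH 7.5, NaCl, CaCl2, BSA, CHAPS, then 50 μM AMC peptide substrate added. Fluorescence (340/440 nm) followed every 5 min for 30 min at room temperature.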

Factor XIa = Factor XIa (Homo sapiens, UniProt P03951); assay: Factor XIa inhibition assay (FLINT) utilizing a fluorophore-quencher pair peptide substrate 5Fam-[…]-K5Tamra; assay type: biochemical; details: kinetic (KIN) reads, read-out: FXIa KIN Inh IC50
Chain of Factor XIa (P03951 388-625 limits assumed): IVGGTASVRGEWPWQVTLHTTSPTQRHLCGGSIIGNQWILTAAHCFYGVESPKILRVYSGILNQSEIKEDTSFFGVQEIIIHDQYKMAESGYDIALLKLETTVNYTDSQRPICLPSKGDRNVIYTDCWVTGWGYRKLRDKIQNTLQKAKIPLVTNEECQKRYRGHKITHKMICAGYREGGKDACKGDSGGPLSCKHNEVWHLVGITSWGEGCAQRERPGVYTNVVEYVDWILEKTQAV
Chain of Factor XIa (P03951 19-387 partner limits assumed): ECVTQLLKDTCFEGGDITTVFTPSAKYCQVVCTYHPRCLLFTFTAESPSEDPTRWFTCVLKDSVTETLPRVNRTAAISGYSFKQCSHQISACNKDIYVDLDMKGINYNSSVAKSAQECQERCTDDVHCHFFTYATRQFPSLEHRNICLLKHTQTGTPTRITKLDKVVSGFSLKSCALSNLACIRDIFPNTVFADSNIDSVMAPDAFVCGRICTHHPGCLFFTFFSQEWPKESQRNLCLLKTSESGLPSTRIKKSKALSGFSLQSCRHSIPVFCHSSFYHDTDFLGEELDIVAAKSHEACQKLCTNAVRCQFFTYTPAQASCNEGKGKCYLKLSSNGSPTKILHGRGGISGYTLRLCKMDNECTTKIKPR
In short: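 Compounds were tested as 11-point 3-fold dilutions from 100 nM (2% DMSO). They were preincubated 30 min with FXIa in 50 mM Tris pH 7.5, 5 mM CaCl2, then 15 μM fluorophore-quencher peptide was added. Cleavage was followed at 485/520 nm over 30 min, and IC50 was derived by 4-parameter logistic fit.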

| Structure (SMILES) | IC50 (human plasma kallikrein; unit μM) [µM] | IC50 (Factor XIa; values in nM) [nM] | IC50 (Factor XIa; unit μM) [nM] | IC50 (human plasma kallikrein; values in nM) [µM] |
| --- | --- | --- | --- | --- |
| C[C@H]1C[C@H](c2ncc(-c3cnns3)[nH]2)n2c1nc(-c1c(-n3cnnn3)ccc(Cl)c1F)cc2=O (relative stereo) [Example 106, (6*R,8*S)-6-(5-(1,2,3-Thiadiazol-5-yl)-1H-imidazol-2-yl)-2-(3-chloro-2-fluoro-6-(1H-tetrazol-1-yl)phenyl)-8-methyl-7,8-dihydropyrrolo[1,2-a]pyrimidin-4(6H)-one] | 6.4 | 933 |  |  |
| Cc1nc(N)c(F)cc1-c1cnc([C@H]2C[C@H](C)c3nc(-c4c(-n5cnnn5)ccc(Cl)c4F)cc(=O)n32)[nH]1 (relative stereo) [Example 129, (6*R,8*S)-6-(5-(6-Amino-5-fluoro-2-methylpyridin-3-yl)-1H-imidazol-2-yl)-2-(3-chloro-2-fluoro-6-(1H-tetrazol-1-yl)phenyl)-8-methyl-7,8-dihydropyrrolo[1,2-a]pyrimidin-4(6H)-one] | 1.6 | 168 |  |  |
| C[C@@H]1C[C@H](c2ncc(-c3cnnn3C)[nH]2)n2c1nc(-c1c(-n3cnnn3)ccc(Cl)c1F)cc2=O (relative stereo) [Example 135, (6*R,8*R)-2-(3-Chloro-2-fluoro-6-(1H-tetrazol-1-yl)phenyl)-8-methyl-6-(5-(1-methyl-1H-1,2,3-triazol-5-yl)-1H-imidazol-2-yl)-7,8-dihydropyrrolo[1,2-a]pyrimidin-4(6H)-one] | > 10 |  | 2700 |  |
| C[C@@H]1C[C@@H](c2ncc(-c3ccc(N)nc3F)[nH]2)n2c1nc(-c1c(-n3cnnn3)ccc(Cl)c1F)cc2=O (relative stereo) [Example 137, (6S*,8R*)-6-(5-(6-Amino-2-fluoropyridin-3-yl)-1H-imidazol-2-yl)-2-(3-chloro-2-fluoro-6-(1H-tetrazol-1-yl)phenyl)-8-methyl-7,8-dihydropyrrolo[1,2-a]pyrimidin-4(6H)-one] | 7.2 | 104 |  |  |
| C[C@@H]1C[C@@H](c2ncc(-c3ccnn3C)[nH]2)n2c1nc(-c1c(-n3cnnn3)ccc(Cl)c1F)cc2=O (relative stereo) [Example 145, (6S*,8R*)-2-(3-Chloro-2-fluoro-6-(1H-tetrazol-1-yl)phenyl)-8-methyl-6-(5-(1-methyl-1H-pyrazol-5-yl)-1H-imidazol-2-yl)-7,8-dihydropyrrolo[1,2-a]pyrimidin-4(6H)-one] | > 10 |  | > 10000 |  |
| C[C@@H]1C[C@@H](c2ncc(-c3ccnc(C(F)(F)F)c3)[nH]2)n2c1nc(-c1c(-n3cnnn3)ccc(Cl)c1F)cc2=O (relative stereo) [Example 147, (6S*,8R*)-2-(3-Chloro-2-fluoro-6-(1H-tetrazol-1-yl)phenyl)-8-methyl-6-(5-(2-(trifluoromethyl)pyridin-4-yl)-1H-imidazol-2-yl)-7,8-dihydropyrrolo[1,2-a]pyrimidin-4(6H)-one] | > 10 |  | > 10000 |  |
| C[C@H]1C[C@@H](c2ncc(-c3ccnc(C(F)(F)F)c3)[nH]2)n2c1nc(-c1c(-n3cnnn3)ccc(Cl)c1F)cc2=O (relative stereo) [Example 148, (6S*,8S*)-2-(3-Chloro-2-fluoro-6-(1H-tetrazol-1-yl)phenyl)-8-methyl-6-(5-(2-(trifluoromethyl)pyridin-4-yl)-1H-imidazol-2-yl)-7,8-dihydropyrrolo[1,2-a]pyrimidin-4(6H)-one] |  | 47.6 |  | 0.094 |
| CO[C@@H]1C[C@H](c2ncc(-c3ccc(N)nc3F)[nH]2)n2c1cc(-c1c(-n3cnnn3)ccc(Cl)c1F)cc2=O (relative stereo) [Example 151, (1*R,3*R)-3-(5-(6-Amino-2-fluoropyridin-3-yl)-1H-imidazol-2-yl)-7-(3-chloro-2-fluoro-6-(1H-tetrazol-1-yl)phenyl)-1-methoxy-2,3-dihydroindolizin-5(1H)-one] |  | 0.3 |  | 0.014 |
